Source: ChEMBL document CHEMBL3875162, “Synthesis and biological evaluation of new benzimidazole-thiazolidinedione hybrids as potential cytotoxic and apoptosis inducing agents” (Eur J Med Chem, 2016)
Active and inactive are the calls of the source. The rule behind the calls is not given here.

Columns and labels:
[1] = Antimigratory activity in human A549 cells assessed as cell migration at 10 uM after 24 hrs by phase contrast microscopy-based wound healing assay relative to control; assay type: functional
[2] = test system: A549; assay: Induction of apoptosis in human A549 cells assessed as appearance of horse-shoe shaped nucleus at 5 to 15 uM after 24 hrs by DAPI staining based fluorescence microscopic method; assay type: functional, cell-based
[3] = test system: A549; assay: Induction of apoptosis in human A549 cells assessed as late apoptotic cells at 15 uM after 24 hrs by Annexin V-FITC/propidium iodide staining based flow cytometry (reference value: 0.8%); assay type: functional
[4] = test system: A549; assay: Induction of morphological changes in human A549 cells assessed as cell shrinkage at 5 to 15 uM after 24 hrs by phase contrast microscopic method; assay type: functional, cell-based
[5] = test system: A549; assay: Induction of morphological changes in human A549 cells assessed as […] at 5 to 15 uM after 24 hrs by phase contrast microscopic method; assay type: functional, cell-based
[6] = Cell cycle arrest in human A549 cells assessed as accumulation at G2/M phase at 10 uM after 24 hrs by propidium iodide staining-based flow cytometry (reference value: 23.3%); assay type: functional
[7] = test system: A549; assay: Antimigratory activity in human A549 cells after 24 hrs by phase contrast microscopy-based wound healing assay; assay type: functional, cell-based
[8] = test system: A549; assay: Induction of apoptosis in human A549 cells assessed as nuclear condensation at 5 to 15 uM after 24 hrs by DAPI staining based fluorescence microscopic method; assay type: functional, cell-based
[9] = Cytotoxicity against human MCF10A cells assessed as cell growth inhibition after 48 hrs by MTT assay; assay type: toxicity, cell-based, MCF-10A
[10] = test system: A549; assay: Induction of mitochondrial membrane potential loss in human A549 cells at 10 uM after 24 hrs by rhodamine-123 staining based flow cytometry relative to control; assay type: functional
[11] = test system: A549; assay: Induction of apoptosis in human A549 cells assessed as cell membrane blebbing at 5 uM after 24 hrs by acridine orange/ethidium bromide-dual staining based fluorescence microscopic method; assay type: functional
[12] = Antimigratory activity in human A549 cells assessed as cell migration at 5 uM after 24 hrs by phase contrast microscopy-based wound healing assay relative to control; assay type: functional
[13] = Cell cycle arrest in human A549 cells assessed as accumulation at G0/G1 phase at 10 uM after 24 hrs by propidium iodide staining-based flow cytometry (reference value: 66.6%); assay type: functional
[14] = test system: A549; assay: Induction of apoptosis in human A549 cells assessed as viable cells at 10 uM after 24 hrs by Annexin V-FITC/propidium iodide staining based flow cytometry (reference value: 94%); assay type: functional; conditions: A549, 24 h, read-out: Activity
[15] = Cytotoxicity against human DU145 cells assessed as cell growth inhibition after 48 hrs by MTT assay; assay type: functional, cell-based; conditions: DU-145, 48 h
[16] = test system: A549; assay: Induction of apoptosis in human A549 cells assessed as necrotic cells at 15 uM after 24 hrs by Annexin V-FITC/propidium iodide staining based flow cytometry (reference value: 2.3%); assay type: functional
[17] = test system: A549; assay: Induction of apoptosis in human A549 cells assessed as destructive fragmentation of nucleus forming horse-shoe shaped structure at 10 to 15 uM after 24 hrs by acridine orange/ethidium bromide-dual staining based fluorescence microscopic method; assay type: functional, cell-based
[18] = Cytotoxicity against human MDA-MB-231 cells assessed as cell growth inhibition after 48 hrs by MTT assay; assay type: functional, cell-based; conditions: MDA-MB-231, 48 h
[19] = Cell cycle arrest in human A549 cells assessed as accumulation at G0/G1 phase at 15 uM after 24 hrs by propidium iodide staining-based flow cytometry (reference value: 66.6%); assay type: functional
[20] = Cytotoxicity against human PC3 cells assessed as cell growth inhibition after 48 hrs by MTT assay; assay type: functional, cell-based; conditions: PC-3, 48 h
[21] = test system: A549; assay: Induction of mitochondrial membrane potential loss in human A549 cells at 5 uM after 24 hrs by rhodamine-123 staining based flow cytometry relative to control; assay type: functional
[22] = test system: A549; assay: Induction of apoptosis in human A549 cells assessed as viable cells at 15 uM after 24 hrs by Annexin V-FITC/propidium iodide staining based flow cytometry (reference value: 94%); assay type: functional; conditions: A549, 24 h, read-out: Activity
[23] = test system: A549; assay: Induction of apoptosis in human A549 cells assessed as necrotic cells at 5 uM after 24 hrs by Annexin V-FITC/propidium iodide staining based flow cytometry (reference value: 2.3%); assay type: functional
[24] = test system: A549; assay: Induction of apoptosis in human A549 cells assessed as early apoptotic cells at 5 uM after 24 hrs by Annexin V-FITC/propidium iodide staining based flow cytometry (reference value: 2.6%); assay type: functional
[25] = test system: A549; assay: Induction of apoptosis in human A549 cells assessed as early apoptotic cells at 15 uM after 24 hrs by Annexin V-FITC/propidium iodide staining based flow cytometry (reference value: 2.6%); assay type: functional
[26] = Antimigratory activity in human A549 cells assessed as cell migration at 15 uM after 48 hrs by phase contrast microscopy-based wound healing assay relative to control; assay type: functional
[27] = test system: A549; assay: Induction of apoptosis in human A549 cells assessed as increase in superoxide production after 24 to 48 hrs by mitoSOX red-probe based fluorescence microscopic method; assay type: functional, cell-based
[28] = Cell cycle arrest in human A549 cells assessed as decrease in cell levels at G0/G1 phase after 24 hrs by propidium iodide staining-based flow cytometry; assay type: functional
[29] = Cell cycle arrest in human A549 cells assessed as accumulation at S phase at 5 uM after 24 hrs by propidium iodide staining-based flow cytometry (reference value: 11.5%); assay type: functional
[30] = Cytotoxicity against human A549 cells assessed as cell growth inhibition after 48 hrs by MTT assay; assay type: functional, cell-based; conditions: A549, 48 h
[31] = test system: A549; assay: Inhibition of F-actin polymerization in human A549 cells assessed as disruption of actin fibre assembly after 24 hrs by rhodamine-phalloidin/[…]-dual staining based fluorescent microscopic method; assay type: cell-based
[32] = test system: A549; assay: Induction of mitochondrial membrane potential loss in human A549 cells at 15 uM after 24 hrs by rhodamine-123 staining based flow cytometry relative to control; assay type: functional
[33] = test system: A549; assay: Induction of apoptosis in human A549 cells assessed as early apoptotic cells at 10 uM after 24 hrs by Annexin V-FITC/propidium iodide staining based flow cytometry (reference value: 2.6%); assay type: functional
[34] = test system: A549; assay: Induction of apoptosis in human A549 cells assessed as apoptotic body formation at 10 to 15 uM after 24 hrs by acridine orange/ethidium bromide-dual staining based fluorescence microscopic method; assay type: functional, cell-based
[35] = Cell cycle arrest in human A549 cells assessed as accumulation at S phase at 15 uM after 24 hrs by propidium iodide staining-based flow cytometry (reference value: 11.5%); assay type: functional
[36] = Cell cycle arrest in human A549 cells assessed as accumulation at G0/G1 phase at 5 uM after 24 hrs by propidium iodide staining-based flow cytometry (reference value: 66.6%); assay type: functional
[37] = test system: A549; assay: Induction of apoptosis in human A549 cells assessed as viable cells at 5 uM after 24 hrs by Annexin V-FITC/propidium iodide staining based flow cytometry (reference value: 94%); assay type: functional; conditions: A549, 24 h, read-out: Activity
[38] = test system: A549; assay: Induction of apoptosis in human A549 cells assessed as nucleus fragmentation at 5 to 15 uM after 24 hrs by DAPI staining based fluorescence microscopic method; assay type: functional, cell-based
[39] = Cell cycle arrest in human A549 cells assessed as accumulation at G2/M phase at 5 uM after 24 hrs by propidium iodide staining-based flow cytometry (reference value: 23.3%); assay type: functional

With `Cn1c(/C=C2\SC(=O)N(CC(=O)Nc3nc(-c4ccccc4)cs3)C2=O)nc2ccccc21` the Activity [1] was 74.3%, the Activity [2] was “Active” and the Activity [3] was 11.9%. For the same molecule, the Activity [4] was “Active”, the Activity [5] was “Active” and the Activity [6] was 49.3%. The Activity [7] was “Dose-dependent effect”, the Activity [8] was “Active” and the IC50 at 48 h [9] was greater than 100 µM. The Activity [10] was 30.6%, the Activity [11] was “Active” and the Activity [12] was 77.8%. It also gave an Activity [13] of 44.8%, a viability at 10 µM [14] of 73.3% and an IC50 [15] of 31.4 µM. The Activity [16] was 2.5%, the Activity [17] was “Active” and the IC50 [18] was 29.2 µM. It also gave an Activity [19] of 30.5%, an IC50 [20] of 39.9 µM and an Activity [21] of 24.6%. The viability at 15 µM [22] was 66.8%, the Activity [23] was 0.6% and the Activity [24] was 12.8%. The Activity [25] was 19.4%, the Activity [26] was 29.6% and the Activity [27] was “Dose-dependent effect”. The Activity [28] was “Dose-dependent effect”, the Activity [29] was 11.4% and the IC50 [30] was 11.5 µM. The inhibition [31] was “Dose-dependent effect”, the Activity [32] was 45.8% and the Activity [33] was 15.8%. The Activity [34] was “Active”, the Activity [35] was 13.5% and the Activity [36] was 48.9%. The viability at 5 µM [37] was 80.5%, the Activity [38] was “Active” and the Activity [39] was 41.4%.
